Reference: patent US9416173B2, “Peptide and conjugate vaccines for fungal infections” (priority 2011, dated 2016)

Key:
[1] = tested on: anti-Fba antibodies in immune sera; experiment: ELISA inhibition assay with modified Fba peptides as inhibitors; type: binding, mice; details: compared with original Fba inhibition curve
Experimental: (§1) The specificity of MAb E2-9 for Fba peptide was determined by an inhibition ELISA as described previously (52, 53). Briefly, Fba-MAP was dissolved in DPBS (5 μg/ml), and the solution was used to coat 96-well ELISA plates (100 μl, overnight at 4° C.). The wells were washed five times with PBST (PBS containing Tween 20, 0.05% [vol/vol] and blocked with 1% bovine serum albumin-PBST. MAb E2-9 produced as described above, was serially diluted up to 10,000 for ELISA measurements. Unless otherwise stated, the serum was diluted 1:100 dilution in DPBS to determine the content of antibody by ELISA. MAb E2-9 was mixed with Fba peptide (inhibitor) (dissolved in PBST at a concentration between 0.1 μM and 1 mM), and the resulting solution of each concentration was added to the Fba-MAP coated microtiter wells (solid phase) in triplicate and incubated at 21 to 23° C. for 2 h. Unless otherwise stated, the concentration of test antigens used to coat the wells was about 5-10 μg/ml. The wells were washed three times with PBST, and goat anti-mouse heavy chain specific for IgM was HRP-conjugated (diluted 1:10,000 in PBST) (Sigma) and 100 μl was added to the corresponding wells and incubated for 1 h at 21 to 23° C. The wells were washed five times with PBST, followed by addition of 100 μl of substrate solution (25 ml of 0.05 M phosphate-citrate buffer [pH 5.0], 200 μl of an aqueous solution of O-phenylenediamine 50 mg/ml [Sigma], and 10 μl of 30% H2O2). Color was allowed to develop for 10 min, stopped by addition of […] of 2 M H2SO4, and read at 492 nm (microtiter plate reader, model 450; Bio-Rad, Richmond, Calif.). The percent inhibition was calculated relative to wells containing antibody without inhibitor.
The specificity of anti-Fba antibodies in immune sera was tested for the modified Fba peptides as determined by ELISA inhibition assay. Peptide 1, original Fba, which was used as an inhibitor, was included as a positive control. The inhibition curve of FIG. 17 serves to compare the curves with the other modified peptides 2-11. FIGS. 18A, 18B, 18C, and 18D show the results of ELISA inhibition assays for peptide 2, peptide 3, peptide 4 and peptide 5, respectively. Each methylated peptide was used as an inhibitor in the designated assay. […] The reaction is dose-dependent for each group, indicating anti-Fba antibodies in immune sera were specific for the modified peptides. […] The binding of peptide 11, which has two extra cysteines may indicate that the binding site of Fba with antibody is located at the carboxyl part of the peptide.

[2] = tested on: C. albicans; experiment: Immunofluorescence and flow cytometric analysis of binding to fungal cell surface; type: cell-based; details: live fungal cells reacted with immune serum of peptide-immunized mice
Experimental: Distribution of the Fba peptide epitope on yeast cells was determined by indirect immunofluorescence. […] The yeast cells were suspended in the antibody preparation and incubated while shaking by rotation at room temperature (RT, 22-24° C.) for 1-2 h. After incubation, the yeast cells were washed with DPBS three times, suspended in 200 μl of fluorescein-labeled goat anti-mouse IgM (u-chain specific; Sigma) (stock solution, 1 mg/ml; working solution, 20 μg/ml of DPBS) and incubated at RT as described above for 0.5 h. The yeast cells were washed with DPBS three times and suspended in 200 μl of DPBS. The cells were observed by confocal microscopy (LSM 510, Zeiss). The distribution of the Fba peptide epitope on the yeast cell surface was compared to that obtained with yeast cells fluorescently stained for detection of the MAb B6.1 epitope. […] For flow cytometric analysis, following the last incubation, cells were washed as described above and suspended in the 500 μl DPBS buffer. Flow cytometry was performed using a BD Biosciences FACSVantage SE equipped with an argon laser excitation at 488 nm. 10,000 cells in each sample were analyzed (CellQuest Pro software).
Distribution of the β-(Man)3 and Fba peptide epitopes on yeast cells was determined by use of immune serum for flow cytometric analysis and indirect immunofluorescence. One hundred microliters of immune serum (1:100 dilution in 1% BSA/DPBS) was added to a pellet of C. albicans yeast cells (5×10^6) that was prewashed with DPBS buffer three times. The yeast cells were suspended in the immune serum [from β-(Man)3-Fba-TT immunized mice] preparation and incubated while shaking by rotation at room temperature (RT, 22-24° C.) for 1-2 h. After incubation, the yeast cells were washed with DPBS three times, suspended in 200 μl of fluorescein-labeled goat anti-mouse IgM (μ-chain specific; Sigma) (stock solution, 1 mg/ml; working solution, 20 μg/ml of DPBS) and incubated at RT described above for 0.5 h. The yeast cells were washed with DPBS three times and suspended in 500 μl of DPBS. Flow cytometry was performed using a BD Biosciences FACSVantage SE equipped with an argon laser excitation at 488 nm. 10,000 cells in each sample were analyzed (CellQuest Pro software).
For immunofluorescence assays, the fungal cells were immunostained and washed as described above and suspended in the 200 μl DPBS buffer. The cells were observed by confocal microscopy (LSM 510, Zeiss). The distribution of the β-(Man)3 and Fba peptide epitopes on the yeast cell surface was compared to that obtained with yeast cells fluorescently stained for detection of the MAb B6.1 epitope.

[3] = tested on: synthetic peptides; experiment: ELISA antibody responses to peptide-pulsed DC vaccines; type: in vivo, BALB/c mice; details: general fungal peptides, peptide-pulsed DC + CFA
Experimental: The murine dendritic cells (DCs) were pulsed in vitro with peptide candidate vaccine antigens as previously described (53). Briefly, DCs in culture were pulsed with the peptide antigen (1 μM) on day 6. On day 7, PGE2 (10^-7M) was added along with LPS (2 μg/ml, Sigma-Aldrich) for 24 h. On day 9, antigen-pulsed DCs were washed extensively and 5×10^5 in 200 μl DPBS were given intraperitoneally (i.p.) as the priming dose to mice. The mice were boosted i.p. at day 14 with fresh antigen-pulsed DCs and boosted a second time at day 28 with antigen (10 μg) emulsified in complete Freund adjuvant (CFA) given subcutaneously (s.c.).
Sera were ELISA analyzed for antibody titers. For DC-based immunization, control groups consisted of mice given DCs alone at the time of priming and first booster followed by CFA alone at the time of the second booster, or DPBS alone for all three injections. For Fba peptides administered with alum or MPL, control groups were mice given adjuvant alone or DPBS buffer. […] Synthetic Fba-MAP (GenScript) was dissolved at 5 μg/ml in PBS (pH 7.4) and used to coat 96-well ELISA plates for testing duplicate serial 2-fold dilutions of samples of each immune serum and control sera. Color development for each well was achieved by use of secondary antibody (goat anti-mouse polyvalent Ig-HRP) and substrate (O-phenylenediamine and H2O2) and OD determined at 492 nm.
FIGS. 1A-1C show the antibody responses in BALB/c mice against peptide-pulsed DC vaccines. Sera from mice immunized with the six synthetic peptide carriers presented on dendritic cells (DCs) for the priming and first booster immunizations and emulsified in complete Freund adjuvant (CFA) for the second booster were tested by ELISA for antibody responses against the peptides. Control groups consisted of mice given the same regimen for priming and boosters except that the peptides were omitted (DCs+CFA) or DPBS only was used at each injection time. […] The bars of each panel indicate means of CFUs per kidney pair for each group. The lowest limit of detection for the CFU assay is 50 CFU per kidney pair.
Sera were ELISA analyzed for antibody titers. Control groups consisted of mice given DCs alone at the time of priming and first booster followed by DPBS at the time of the second booster, DPBS for the priming and first booster and CFA alone at the time of the second booster, DPBS alone for all three injections, or DCs alone for priming and first booster followed by CFA alone at the time of the second booster. Briefly, synthetic peptides were dissolved at 10 μg/ml in PBS (pH 7.4). […] Color development for each well was achieved by secondary antibody (goat anti-mouse polyvalent immunoglobulin-HRP, Sigma) and substrate (O-phenylenediamine and H2O2) and Optical Density (OD) determined at 492 nm.

[4] = tested on: C. albicans strain 3153A; experiment: Fungal challenge and assessment of protection (disseminated candidiasis), peptide vaccines; type: in vivo, BALB/c mice; details: for survival rate: general peptides, experiment terminated 80 days post challenge; for protection against disseminated candidiasis (survival) / viable fungal units (CFUs) in kidneys: peptide-pulsed DC vaccine; for protection against disseminated candidiasis (survival): vs DPBS or DCs+CFA controls; for viable fungal units (CFUs) in kidneys: vs controls, detection limit 50 CFU per kidney pair
Experimental: C. albicans 3153A and SC5314, C. krusei (ATCC 6258), C. glabrata (ATCC 2001) and Saccharomyces cerevisiae (ATCC 9463) were obtained from the American Type Culture Collection (ATCC; Manassas, Va.) and were grown as stationary-phase yeast cells in glucose-yeast extract-peptone broth at 37° C., washed and suspended to the appropriate cell concentration (5×10^6/ml) in Dulbecco's PBS (DPBS; Sigma-Aldrich, St. Louis, Mo.), and used to infect mice intravenously (i.v.) as previously described (25, 29). C. albicans strain 3153A was also used for serum antibody absorption, immunofluorescence staining and flow cytometric analysis. Unless otherwise indicated, C. albicans strain 3153A was used to challenge the mice in the examples below.
(§2) Two weeks after the second boost, immune and control mice were infected intravenously (i.v.) with a lethal dose of live C. albicans yeast cells (5×10^5 in 0.1 ml of DPBS) prepared as described above and as before (53). Passively immunized mice (below) also received the same challenge dose. Protection was evaluated by monitoring animal survival for 80-100 days. The mice were monitored 2-3 times daily for the development of a moribund state, defined as being listless, disinterested in food or water, and nonreactive to finger probing. At the time that a mouse was deemed moribund, it was sacrificed and their kidneys (for some experiments, brains) were homogenized in DPBS and plated onto a nutrient agar to determine colony forming units (CFUs). After 80-100 days, the experiments were terminated and all the survivors at that time were sacrificed and their kidneys were assessed for CFU as before. The lowest limit of detection for the CFU assay was 50 CFU per kidney pair.
Two weeks after the second boost, immune and control mice were infected i.v. with a lethal dose of live C. albicans yeast cells (5×10^5 in 0.1 ml of DPBS). Passively immunized mice also received the same challenge dose. Protection was evaluated by monitoring animal survival for up to 120 days and by quantifying the number of CFU (mean±SE) per kidney pairs. Median survival times (MST) were statistically evaluated by Kaplan-Meier (GraphPad Prism, version 4). In all analyses, there were five mice per group (n=5), and a two-tailed t test was used.

[5] = tested on: C. albicans strain SC5314; experiment: Fungal challenge and assessment of protection, strain SC5314; type: in vivo, BALB/c mice; details: Fba peptide by dendritic cell approach
Experimental: as §2
To test if vaccination with the Fba peptide pulsed DCs protects mice challenged with a different C. albicans strain, we challenged immunized mice with C. albicans strain SC5314 (ATCC), which is the most commonly used clinical isolate of C. albicans for research purposes. As a positive control, a second group of mice immunized at the same time were challenged with C. albicans strain 3153A.

[6] = tested on: MAb E2-9; experiment: Inhibition ELISA (MAb E2-9 on Fba-MAP coated wells, Fba peptide as inhibitor); type: binding; details: soluble Fba peptide inhibiting MAb E2-9 reactivity with solid phase Fba-MAP
Experimental: as §1, with “The wells were washed three times with PBST, and goat anti-mouse heavy chain specific for IgM was HRP-conjugated (diluted 1:10,000 in PBST) (Sigma) and 100 μl was added to the corresponding wells and incubated for 1 h at 21 to 23° C. The wells were washed five times with PBST, followed by addition of 100 μl of substrate solution (25 ml of 0.05 M phosphate-citrate buffer [pH 5.0], 200 μl of an aqueous solution of O-phenylenediamine 50 mg/ml [Sigma], and 10 μl of 30% H2O2).” left out

[7] = tested on: Fba peptide; experiment: ELISA antibody responses against the Fba peptide in C57BL/6 mice; type: in vivo; details: DC-based immunization; 14 days after second booster
Experimental: By the same DC-based immunization approach used for the BALB/c mice as described above, C57BL/6 mice was tested with the Fba peptide was given alone or as a glycoconjugate compared to the control groups of mice injected with DPBS buffer, or DCs+CFA.
Fourteen days after the second booster, immune sera were tested by ELISA for antibody responses against the Fba peptide.

[8] = tested on: Fba peptide; set-up: species or system BALB/c mice; details: mouse, in vivo
[9] = tested on: Fba peptide; experiment: Rabbit antisera against the Fba peptide (titers); type: in vivo; details: Fba conjugated to KLH; each of two rabbits; commercial source (Genscript); data not shown
Text: To obtain enough antisera for passive transfer experiments, and to determine whether the Fba peptide is immunologically restricted in other animal species, we obtained rabbit antisera against the peptide from a commercial source (Genscript). Fba was conjugated to keyhole limpet hemocyanin (KLH) prior to the rabbit immunizations.

| Sequence | effect on peptide-antibody binding (ELISA inhibition, peptide as inhibitor) [1] | protection against disseminated candidiasis (survival) [4] | viable fungal units (CFUs) in kidneys [4] | other results |
| --- | --- | --- | --- | --- |
| YGKDVKDLFDYAQE (methylated at position 5) [Pep5] | little effect on peptide-antibody binding |  |  |  |
| SSSTVVAAL [Fba4] |  |  |  | binding of antibody in the immune serum to the peptides expressed on C. albicans cell surface (flow cytometric analysis) [2]: expressed on the fungal surface and are accessible to antibodies in immune sera; antibody responses (ELISA, plates coated with the peptide) [3]: able to induce antibody responses; survival rate ([4]; DC immunization): 60% |
| FAIPAINVTSSSTV [Fba2] |  |  |  | antibody responses (ELISA, plates coated with the peptide) [3]: good and specific antibody responses; protection (survival) vs DC+CFA control ([4]; general peptides experiment, DC immunization): failed to induce good protection |
| YGKDVKDLFDYAQE [Fba] |  | a high degree of protection | low or even non-detectable | survival time ([5]; vs DCs+CFA or DPBS (P<0.01)): significant prolonged survival time; CFUs in kidneys ([5]; vs controls (P<0.01)): greatly reduced or non-detectable CFUs; binding of antibody in the immune serum to the peptides expressed on C. albicans cell surface (flow cytometric analysis) [2]: expressed on the fungal surface and are accessible to antibodies in immune sera; concentration of inhibitor (Fba peptide) required to achieve 50% inhibitory concentration [6]: about 10 μg/ml; antibody responses against the Fba peptide (ELISA, Fba-MAP coated plates) [7]: strong antibody responses; anti-Fba IgM and IgG antibodies in sera [8]: very low levels of anti-Fba IgM and IgG antibodies; Titers of anti-Fba peptide immune sera [9]: 512,000 |
| QGETEEALIQKRSY [Hwp1] |  | a high degree of protection | low or even non-detectable |  |
| YGKDVKDLFDYAQE (methylated at positions 1 and 8) [Pep10] | bound well to antibody |  |  |  |
| NRSPSTGEQKSSGI [Gap1] |  | neither of two other peptides Gap1, or Eno1 induced protection | slightly less fungal burden |  |
| YGKDVKDLFDYAQE (methylated at position 3) [Pep4] | little effect on peptide-antibody binding |  |  |  |
| PRIGGQRELKKITE [Met6] |  | a high degree of protection | low or even non-detectable |  |
| YGKDVKDLFDYAQE (methylated at position 1) [Pep2] | little effect on peptide-antibody binding |  |  |  |
| FAIPAINVTSSSTVVAALE [Fba3] |  |  |  | binding of antibody in the immune serum to the peptides expressed on C. albicans cell surface (flow cytometric analysis) [2]: expressed on the fungal surface and are accessible to antibodies in immune sera; antibody responses (ELISA, plates coated with the peptide) [3]: able to induce antibody responses; survival rate ([4]; DC immunization): 80% |
| YGKDCVKCDLFDYAQE (cysteine added at positions 5 and 8) (cysteines added at positions 5 and 8) [Pep 11] | bound well to antibody |  |  |  |
| YGKDVKDLFDYAQE (methylated at position 2) [Pep3] | little effect on peptide-antibody binding |  |  |  |
| DSRGNPTVEVDFTT [Eno1] |  | neither of two other peptides Gap1, or Eno1 induced protection | slightly less fungal burden |  |
| VPLDGKTITNNQRI [Pgk1] |  | some protection | low or non-detectable CFUs |  |
| YDQVLDLSLLFNAIP [Met6-2] |  |  |  | binding of antibody in the immune serum to the peptides expressed on C. albicans cell surface (flow cytometric analysis) [2]: expressed on the fungal surface and are accessible to antibodies in immune sera; antibody responses (ELISA, plates coated with the peptide) [3]: able to induce antibody responses; survival rate ([4]; DC immunization): 80% |
